Test results reported in PMC5578999, “Novel quinolone chalcones targeting colchicine-binding pocket kill multidrug-resistant cancer cells by inhibiting tubulin activity and MRP1 function” (Scientific Reports, 2017).

What was measured:
KB-C-2 [1] = assay: SRB cell viability, MDR1-overexpressing cells; assay type: cell-based; conditions: Homo sapiens, KB-C2; KB-C-2 MDR1-overexpressing cells
Description: (§1) human epidermoid carcinoma cell line and KB-C2, an isogenic MDR1- overexpressing drug-resistant cell line, were kindl y provided b y Dr. Amit K Tiwari, the Universit y of Toledo, OH. […]
(§2) Cell line authentication was carried out by Genetica DNA
(§3) Cell viability, com binational i ndex and cell synchronization
(§4) Cell viability and proliferation were ex amined using a s ulforhodamine B (SRB) assa y as […]
(§5) IC 50 values were calculat ed from si gmoidal dose-response cu rves gen erat ed b y at least two indepen dent ex periments , with each quadruplicate samples, using GraphPad Prism v.5.04 software (GraphPad Software, Inc, La J olla, CA). […]
(§6) (sham) or presence of compound(s). […]

KB-C-1 = assay: SRB cell viability, parental cells; assay type: cell-based; conditions: Homo sapiens, KBC-1; parental KB-C-1
Description: as §1, §2, §3, §4, §5, §6

SW-1271 = assay: SRB cell viability; assay type: cell-based; conditions: SW1271
Description: as §2, §3, §4, §5, §6

H69AR = assay: SRB cell viability, multidrug-resistant cells; assay type: cell-based; conditions: for IC50: Homo sapiens, H69AR
Description: as §2, §3, §4, §5, §6

purified porcine tubulin [2] = target: T1, purified porcine tubulin (Sus scrofa, UniProt P02554); assay: Intrinsic tryptophan fluorescence quenching of tubulin; assay type: binding
T1 construct: purified porcine tubulin (T240, Cytoskeleton); purchased Cytoskeleton T240
Description: A two-step extraction procedure was used to differentially extract tubulin heterodimers and microtubules from sham-treated cells or those treated with compounds as described previously. To determine the binding ability of CTR compounds to tubulin, the changes in the intrinsic tryptophan fluorescence of purified porcine tubulin (T240, Cytoskeleton) was measured as described previously. GraphPad Prism software was used to determine the dissociation constant of CTRs bound to tubulin, and the following formula was used: ∆F=∆Fmax×C/Kd+C Where, ΔF is the changes in the fluorescence intensity of the tubulin when bound by CTR; ΔFmax is the maximum change in the fluorescence intensity; C is compound concentration; and Kd is the dissociation constant of the compound. The experiment was repeated five times.

[3] = system: MDA-MB-231 triple-negative metastatic breast cancer cells; assay: Antitumor activity in engrafted athymic mice; assay type: in vivo, ATH490 athymic mice; conditions: for tumor volume Day 0 / tumor volume Day 6: Tax 10 mg/kg i.v. once/week, CTR 30 mg/kg i.p. every 3-4 days, combinations Tax 5 + CTR 15 mg/kg once/week; for tumor volume Day 6: sham 105.03; for tumor volume Day 14 / tumor volume Day 17 / tumor volume Day 20 / tumor volume Day 24 / tumor volume Day 27 / tumor volume Day 30: same doses; for tumor volume Day 14: sham 136.66; for tumor volume Day 17: sham 162.62; for tumor volume Day 20: sham 192.69; for tumor volume Day 24: sham 268.08; for tumor volume Day 27: sham 426.87; for tumor volume Day 30: sham 557.66
Description: The animals were then immediately euthanized by carbon dioxide. […]
Supplementary Table S2. A typical treatment protocol of engrafted mice with CTR alone or in
combination with paclitaxel.
Treatment Dos a ge Frequ enc y Route Notes
Sham control Highest volume E v e r y 3-4 d a ys Intraperitoneal (I.P.) Vehicle onl y
Taxa 10 mg/kgb Once/week Intravenous ( I.V.)
CTR-17 (30) 30 mg/kg E v e r y 3-4 d a ys I. P .
CTR-20 (30) 30 mg/kg E v e r y 3-4 d a ys I. P .
Supplementary Table S 3: Antitumor activity of CTR -17 and CTR -20, alone or in combination
a Tax: paclitaxel. b mg per kg of bod y wei ght. c unit is mm 3. […]

purified porcine tubulin [4] = target: T1, purified porcine tubulin; assay: In vitro microtubule assembly (light scattering) assay; assay type: biochemical; conditions: 3 µmol/L CTR-17, 1 µmol/L CTR-20; 340 nm, one hour, 37 °C
Description: Figure 5 CTRs inhibited microtubule polymerization by binding to tubulin through the colchicine-binding pocket. (a) CTRs inhibited microtubule polymerization in a similar manner to that of nocodazole. Purified porcine tubulin and 1.0 mmol/L GTP were added to reaction mixture (37 °C) containing 10 µmol/L paclitaxel (Tax), 3 µmol/L CTR-17, 1 µmol/L CTR-20, or 5 µmol/L nocodazole (Noco). Polymerization of microtubule was monitored every minute for one hour at 340 nm by spectrophotometry. Note that G-PEM buffer contains 400 µg of purified tubulin. (b) CTR-20 (and CTR-17; Supplementary Fig. S12) bound tubulin. CTR-20 quenched the intrinsic tryptophan fluorescence of tubulin in a dose-dependent manner. The changes in fluorescence intensity (∆F) were plotted against drug concentrations to determine the dissociation constant. […] CTR-20 (and CTR-17; Supplementary Fig. S12) depressed the fluorescence of the colchicine-tubulin complex in a dose-dependent manner. The fluorescence intensity of the final tubulin complex was used to determine the inhibitory concentration (Ki) using a modified Dixon plot. The fluorescence intensity was normalized by subtracting any intrinsic fluorescence of CTR-20 at given doses from that of the complex. “F” is the fluorescence of the CTR-colchicine-tubulin complex, and “F0” is the fluorescence of the colchicine-tubulin complex. […]

KB-C-2 [5] = assay: SRB cell viability, MDR1-overexpressing cells; assay type: cell-based, human; conditions: KB-C-2 vs KB-C-1; Table S1
[6] = Serum ALT and AST, CD1 mice; conditions: paclitaxel 10 mg/kg, CTR 30 mg/kg, combinations paclitaxel 5 + CTR 15 mg/kg, vehicle 38.76 ± 0.17, in U/L (unit assumed)
Description: Alanine transaminase (ALT, SUP6001-c) and Aspartate transaminase (AST, SUP6002-c) color endpoint assay kits were purchased from ID Labs (London, Ontario, Canada).
Blood samples were collected via cardiac puncture and processed for ALT and AST measurements. The animals were then immediately euthanized by carbon dioxide.

[7] = Serum ALT and AST, ATH490 mice; conditions: 30 days, paclitaxel 10 mg/kg, CTR 30 mg/kg, combinations 5 + 15 mg/kg; for ALT: sham 64.03± 4.04; for AST: sham 112.46 ± 4.74
Description: For paclitaxel treatments, 40 mg/ml stock solution of paclitaxel (Sigma, MO) was prepared in DMSO. […] Alanine transaminase (ALT, SUP6001-c) and Aspartate transaminase (AST, SUP6002-c) color endpoint assay kits were purchased from ID Labs (London, Ontario, Canada).
Athymic mice engrafted with tumor cells were used to determine antitumor activity. […] When tumor size reached 5–6 mm in diameter (n = 4–5 per group), mice were randomly assigned into several groups and vehicle-treated or treated with drug(s). […] Animals were monitored for food and water consumption every day, and their body weights and tumor volumes were measured twice per week. Tumor volumes were measured with a digital caliper and were determined by the following formula: ½ length × width^2. Blood samples were collected via cardiac puncture and processed for ALT and AST measurements. The animals were then immediately euthanized by carbon dioxide.
carri ed out using GraphP ad Prism software. All values are pr esented as mean±S.E.M.
Comparison between each group was made b y p values determined using one-wa y ANOVA. The
p value of <0.05 is consi dered to be statisticall y significant. Each organ weight was norm alized
with total body mass (BM) as expressed in %.
ATH490 athymic mice were vehicle -treated (Sham) or treated with indicated compounds
and doses for 30 da ys , followed by harvesting liver ( and other o r gans ; Fi g. 7d) for an al ysis of
their toxic effects . […] ( b) Blood sera w erecollected from mice
treated with indicated compounds and doses, and then examinedthe levels of ALT and AST to
gain insight into liver toxicity.
All values ar e present ed as mean±S.E .M.

[8] = Body and organ weights, side effects; conditions: CTR-17 30 mg/kg, CTR-20 30 mg/kg, paclitaxel 10 mg/kg; CD-1 or ATH490 strains
Description: Athymic mice engrafted with tumor cells were used to determine antitumor activity. […] When tumor size reached 5–6 mm in diameter (n = 4–5 per group), mice were randomly assigned into several groups and vehicle-treated or treated with drug(s). […] Animals were monitored for food and water consumption every day, and their body weights and tumor volumes were measured twice per week. Tumor volumes were measured with a digital caliper and were determined by the following formula: ½ length × width^2. Blood samples were collected via cardiac puncture and processed for ALT and AST measurements. The animals were then immediately euthanized by carbon dioxide. Tumors and vital organs (spleen, kidney, liver and lung) were harvested and fixed in 10% buffered formalin at 4 °C overnight before being processed for a paraffin embedding. The paraffin-embedded blocks were then sectioned to 4–5 µm thick. Each section was stained with haematoxylin and eosin (H&E).

T1 sequence (P02554 whole entry): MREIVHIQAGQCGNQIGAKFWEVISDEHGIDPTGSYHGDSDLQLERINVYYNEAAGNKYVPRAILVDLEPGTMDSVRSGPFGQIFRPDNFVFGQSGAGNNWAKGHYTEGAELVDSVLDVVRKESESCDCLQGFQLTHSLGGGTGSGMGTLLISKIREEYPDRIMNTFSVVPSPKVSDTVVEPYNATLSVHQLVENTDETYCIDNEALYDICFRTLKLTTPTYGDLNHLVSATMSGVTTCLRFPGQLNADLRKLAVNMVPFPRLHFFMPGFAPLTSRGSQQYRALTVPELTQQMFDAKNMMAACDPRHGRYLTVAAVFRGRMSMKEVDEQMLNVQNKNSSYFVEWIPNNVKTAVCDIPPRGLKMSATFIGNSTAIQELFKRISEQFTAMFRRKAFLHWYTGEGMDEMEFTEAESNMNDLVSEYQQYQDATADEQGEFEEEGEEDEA
T1 sequence (P02550 whole entry partner): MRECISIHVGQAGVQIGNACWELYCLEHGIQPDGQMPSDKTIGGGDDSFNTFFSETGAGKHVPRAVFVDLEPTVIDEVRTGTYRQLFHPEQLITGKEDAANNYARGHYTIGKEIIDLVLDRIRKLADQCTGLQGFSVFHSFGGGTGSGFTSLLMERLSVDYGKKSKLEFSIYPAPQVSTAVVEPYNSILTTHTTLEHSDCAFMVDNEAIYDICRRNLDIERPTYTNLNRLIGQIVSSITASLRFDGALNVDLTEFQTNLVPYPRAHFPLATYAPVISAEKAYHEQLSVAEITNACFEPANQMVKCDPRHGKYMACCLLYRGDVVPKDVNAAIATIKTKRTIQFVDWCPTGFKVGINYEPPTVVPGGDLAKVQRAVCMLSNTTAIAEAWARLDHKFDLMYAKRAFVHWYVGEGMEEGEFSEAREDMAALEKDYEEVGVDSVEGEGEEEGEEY

SMILES | IC50 (KB-C-2 [1]) | IC50 (KB-C-1) | IC50 (SW-1271) | Resistance (fold) (H69AR; H69AR vs SW-1271, Table S1) | IC50 (H69AR) | Kd (purified porcine tubulin [2]) | tumor volume Day 0 [3] | tumor volume Day 6 [3] | tumor volume Day 14 [3] | tumor volume Day 17 [3] | tumor volume Day 20 [3] | tumor volume Day 24 [3] | tumor volume Day 27 [3] | tumor volume Day 30 [3] | effect on microtubule polymerization (purified porcine tubulin [4]) | Resistance (fold) (KB-C-2 [5]) | levels of ALT and AST [6] | ALT [7] | AST [7] | side effects (changes in body and organ weights) [8]
COc1ccccc1C(=O)/C=C/c1cc2ccccc2[nH]c1=O [CTR-17, (E)-3-(3-(2-Methoxyphenyl)-3-oxoprop-1-enyl)quinolin-2(1H)-one] | 650 ± 160 nM | 380 ± 70 nM | 1140 ± 40 nM | 0.45 fold | 520 ± 100 nM | 4580 ± 950 nM | 86.71 mm3 | 63.99 mm3 | 90.07 mm3 | 128.36 mm3 | 134.76 mm3 | 160.86 mm3 | 189.45 mm3 | 209.84 mm3 | inhibit microtubule polymerization | 1.71 fold | 37.02 ± 1.46 | 64.67± 5.26 IU/L | 114.13 ± 6.36 IU/L | did not cause any notable side effects
COc1ccc2[nH]c(=O)c(/C=C/C(=O)c3ccccc3OC)cc2c1 [CTR-20, (E)-6-Methoxy-3-(3-(2-methoxyphenyl)-3-oxoprop-1-enyl) quinolin-2(1H)-one] | 250 ± 30 nM | 100 ± 10 nM | 1950 ± 10 nM | – | 130 ± 10 nM | 5090 ± 490 nM | 92.51 mm3 | 69.89 mm3 | 84.64 mm3 | 97.11 mm3 | 97.22 mm3 | 106.26 mm3 | 124.88 mm3 | 140.63 mm3 | inhibit microtubule polymerization | 2.50 fold | 30.43 ± 0.49 | 50.50± 9.96 IU/L | 118.22±17.00 IU/L | did not cause any notable side effects
